Laboratory results taken from US8835472B2, “Compounds, pharmaceutical compositions and uses thereof” (Boehringer Ingelheim International GmbH, priority 2010, dated 2014).

Biological target: human ACC2 (Homo sapiens (Human), UniProt O00763)
Assay: ACC2 assay, spectrophotometric 384 well assay (NADH-linked, coupled lactate dehydrogenase/pyruvate kinase reaction)
Assay type: biochemical
Conditions: hACC2 construct lacking the 128 N-terminal amino acids; 25° C., 340 nm over 15 minutes
Protocol: Spectrophotometric 384 Well Assay
Malonyl CoA formation by acetyl CoA carboxylases is stoichometrically linked to the consumption of ATP. ACC2 activity is measured in a NADH-linked kinetic method measuring ADP generated during the ACC reaction using a coupled lactate dehydrogenase/pyruvate kinase reaction.
For biological testing, a human ACC2 construct which lacks the 128 amino acids at the N-terminus for increased solubility (nt 385-6966 in Genbank entry AJ575592) is cloned. The protein is then expressed in insect cells using a baculoviral expression system. Protein purification is performed by anion exchange.
All compounds are dissolved in dimethyl sulfoxide (DMSO) to a concentration of 10 mM.
Assay reactions are then carried out in 384-well plates, with hACC2 in an appropriate dilution and at final assay concentrations (f.c.) of 100 mM Tris (pH 7.5), 10 mM trisodium citrate, 25 mM KHCO3, 10 mM MgCl2, 0.5 mg/mL BSA, 3.75 mM reduced L-glutathione, 15 U/mL lactate dehydrogenase, 0.5 mM phosphoenolpyruvate, 15 U/mL pyruvate kinase, compounds at different concentrations at final DMSO concentrations of 1%.
The enzymatic reaction is then started by addition of a mixture of NADH, acetyl Coenzyme A (both 200 μM f.c.) and ATP (500 uM f.c.). The decrease of the optical density (slope S) is then determined at 25° C. at a wavelength of 340 nm over 15 minutes in a spectrophotometric reader.
Each assay microtiter plate contains wells with vehicle instead of compound as controls for the non-inhibited enzyme (100% CTL; ‘HIGH’) and wells without acetyl-CoA as controls for non-specific NADH degradation (0% CTL; ‘LOW’).
The slope S is used for calculation of % CTL=(S(compound)−S(‘LOW’))/(S(‘HIGH’)−S(‘LOW’))*100. Compounds will give values between 100% CTL (no inhibition) and 0% CTL (complete inhibition).
For IC50 value determination, the sample slope in the presence of the test compound after subtraction of the low controls (S(compound)−S(‘LOW’)) are used. An IC50 value is derived from the compound slopes at different dosages after subtraction of the low controls (S(compound)−S(‘LOW’)) by non-linear regression curve fitting (equation y=(A+((B−A)/(1+((C/x)^D))))).

Chain of human ACC2 (O00763 129-2458): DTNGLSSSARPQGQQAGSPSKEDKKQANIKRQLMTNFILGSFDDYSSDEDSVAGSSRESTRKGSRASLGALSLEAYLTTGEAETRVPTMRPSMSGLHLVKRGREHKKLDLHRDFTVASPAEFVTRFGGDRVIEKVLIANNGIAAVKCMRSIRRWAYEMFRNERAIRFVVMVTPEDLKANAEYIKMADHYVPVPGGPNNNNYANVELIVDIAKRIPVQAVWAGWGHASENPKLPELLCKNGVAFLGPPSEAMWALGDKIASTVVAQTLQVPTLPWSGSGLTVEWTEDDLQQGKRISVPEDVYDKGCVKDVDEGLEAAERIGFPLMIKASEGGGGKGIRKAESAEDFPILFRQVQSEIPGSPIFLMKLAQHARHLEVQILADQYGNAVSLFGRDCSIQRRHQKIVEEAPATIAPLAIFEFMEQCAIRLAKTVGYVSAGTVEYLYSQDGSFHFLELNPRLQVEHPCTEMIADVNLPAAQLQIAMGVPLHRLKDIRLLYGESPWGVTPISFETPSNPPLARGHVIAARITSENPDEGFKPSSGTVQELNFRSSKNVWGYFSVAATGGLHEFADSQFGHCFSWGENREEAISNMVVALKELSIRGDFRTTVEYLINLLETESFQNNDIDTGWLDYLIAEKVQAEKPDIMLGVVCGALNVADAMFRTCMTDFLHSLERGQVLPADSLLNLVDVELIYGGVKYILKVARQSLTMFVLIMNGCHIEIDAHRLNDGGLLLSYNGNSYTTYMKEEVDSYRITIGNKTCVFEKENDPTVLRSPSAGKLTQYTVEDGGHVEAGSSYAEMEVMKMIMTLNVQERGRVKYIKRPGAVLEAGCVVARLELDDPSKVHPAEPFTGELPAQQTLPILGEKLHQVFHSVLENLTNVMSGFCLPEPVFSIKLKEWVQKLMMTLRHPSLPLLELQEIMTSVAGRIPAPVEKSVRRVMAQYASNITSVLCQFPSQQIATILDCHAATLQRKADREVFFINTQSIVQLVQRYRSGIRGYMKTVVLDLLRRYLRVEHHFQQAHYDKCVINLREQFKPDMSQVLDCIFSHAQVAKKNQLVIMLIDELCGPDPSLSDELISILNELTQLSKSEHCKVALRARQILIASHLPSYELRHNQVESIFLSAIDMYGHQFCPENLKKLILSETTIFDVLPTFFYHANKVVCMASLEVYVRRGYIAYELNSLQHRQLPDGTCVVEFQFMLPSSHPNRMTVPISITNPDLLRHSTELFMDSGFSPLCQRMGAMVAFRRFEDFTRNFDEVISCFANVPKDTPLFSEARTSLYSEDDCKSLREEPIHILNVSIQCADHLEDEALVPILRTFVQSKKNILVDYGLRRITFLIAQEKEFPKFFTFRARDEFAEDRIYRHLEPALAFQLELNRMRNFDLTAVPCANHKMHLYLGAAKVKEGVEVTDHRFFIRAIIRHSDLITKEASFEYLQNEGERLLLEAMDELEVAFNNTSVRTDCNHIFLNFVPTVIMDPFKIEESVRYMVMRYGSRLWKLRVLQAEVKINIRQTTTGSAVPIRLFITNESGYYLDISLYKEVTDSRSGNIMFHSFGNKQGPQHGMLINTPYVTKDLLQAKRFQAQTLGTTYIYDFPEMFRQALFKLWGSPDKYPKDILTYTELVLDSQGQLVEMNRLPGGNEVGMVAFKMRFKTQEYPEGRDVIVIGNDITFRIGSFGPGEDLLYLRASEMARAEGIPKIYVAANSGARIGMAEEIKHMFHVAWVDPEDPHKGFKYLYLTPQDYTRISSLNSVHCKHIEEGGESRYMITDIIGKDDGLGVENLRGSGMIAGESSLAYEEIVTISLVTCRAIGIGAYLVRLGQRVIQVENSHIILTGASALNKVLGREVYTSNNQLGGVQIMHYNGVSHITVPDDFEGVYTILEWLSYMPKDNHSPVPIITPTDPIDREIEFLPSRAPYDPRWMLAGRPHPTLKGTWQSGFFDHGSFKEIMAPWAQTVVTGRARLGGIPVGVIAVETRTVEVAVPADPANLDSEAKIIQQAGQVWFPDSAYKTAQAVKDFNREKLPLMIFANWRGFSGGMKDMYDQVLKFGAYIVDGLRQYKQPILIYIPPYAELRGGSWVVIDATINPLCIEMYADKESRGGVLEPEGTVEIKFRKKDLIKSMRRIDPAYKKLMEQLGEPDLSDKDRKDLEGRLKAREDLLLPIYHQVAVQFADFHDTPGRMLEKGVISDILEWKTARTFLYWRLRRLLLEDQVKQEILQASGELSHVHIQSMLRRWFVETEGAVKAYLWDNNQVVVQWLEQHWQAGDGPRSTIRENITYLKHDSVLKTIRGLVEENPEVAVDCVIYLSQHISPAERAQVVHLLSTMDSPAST

Question: `C[C@H](NC(=O)C1CC1)c1ccc(C#Cc2cnc(OCC3CC3)nc2)cc1` [Example 12.58] was tested. Which IC50 did it give?
Answer: 4.5 µM

Question: `CCOc1ccc(C#Cc2ccc(C[C@H](C)NC(C)=O)cc2)cc1` [Example 24.2] was tested. Which IC50 did it give?
Answer: 0.08 µM

Question: `CC(=O)NC(C)Cc1ccc(C#Cc2cnc(Oc3ccc(F)cc3)nc2)cc1` (centres unmarked) [Example 12.49] was tested. Which IC50 did it give?
Answer: 0.23 µM

Question: For `CC(=O)NC(C)CCc1ccc(C#Cc2ccc(OCC3CC3)cc2)cc1` (centres unmarked) [Example 14.12], which IC50 is on record?
Answer: 0.17 µM

Question: Which IC50 does the source give for `CCCCOc1ncc(C#Cc2ccc(CC(C)NC(C)=O)cc2)cn1` (centres unmarked) [Example 12.34] here?
Answer: 0.28 µM

Question: With `CC(=O)NC(C)Cc1ccc(C#Cc2ccc(OC3CCCC3)cc2)cc1` (centres unmarked) [Example 9.2] as the molecule, how does the IC50 read?
Answer: 0.1 µM

Question: With `CC(=O)NC(C)Cc1ccc(C#Cc2ccnc(NCC3CC3)n2)cc1` (centres unmarked) [Example 11.13] as the molecule, how does the IC50 read?
Answer: 1.9 µM

Question: Which IC50 does the source give for `CCOc1ccc(C#Cc2ccc(CC(C)NC(C)=O)cc2)cc1` (centres unmarked) [Example 1.28, N-{2-[4-(4-ethoxy-phenylethynyl)-phenyl]-1-methyl-ethyl}-acetamide] here?
Answer: 0.12 µM

Question: How did the IC50 turn out when `CC(=O)NC(C)Cc1ccc(C#Cc2cnc(OC(C)c3ccncc3)nc2)cc1` (centres unmarked) [Example 12.35] was run?
Answer: 2.3 µM

Question: With `CC(=O)NC(C)Cc1ccc(C#Cc2ccc(Cl)c(C#N)c2)cc1` (centres unmarked) [Example 3.6] as the molecule, how does the IC50 read?
Answer: 2.3 µM

Question: For `CC(=O)NC(C)c1ccc(C#Cc2ccc(OC(C)C)cc2)cc1` (centres unmarked) [Example 2.47], which IC50 is on record?
Answer: 0.36 µM

Question: For `CC(=O)NC(C)Cc1ccc(C#Cc2cccc(OCc3c[nH]cn3)c2)cc1` (centres unmarked) [Example 9.15], which IC50 is on record?
Answer: 2.1 µM

Question: `CC(=O)NC(C)Cc1ccc(C#Cc2ccc(OC(C)C)cc2)cc1` (centres unmarked) [Example 1.29] was tested. Which IC50 did it give?
Answer: 0.25 µM

Question: How did the IC50 turn out when `CCOc1ccc(C#Cc2ccc(CC(C)NC(=O)c3ccco3)cc2)cc1` (centres unmarked) [Example 4.59] was run?
Answer: 0.11 µM

Question: `COC1(C)CCN(c2ncc(C#Cc3ccc(CC(C)NC(C)=O)cc3)cn2)CC1` (centres unmarked) [Example 13.74] was tested. Which IC50 did it give?
Answer: 1.7 µM

Question: `CC(=O)NC(C)Cc1ccc(C#Cc2ccnc(N(C)c3ccccc3)n2)cc1` (centres unmarked) [Example 11.6] was tested. Which IC50 did it give?
Answer: 0.93 µM

Question: With `CC(=O)NC(C)c1ccc(C#Cc2ccc3c(c2)CCO3)cc1` (centres unmarked) [Example 2.45] as the molecule, how does the IC50 read?
Answer: 0.25 µM

Question: Which IC50 does the source give for `CC(=O)NC(C)(C)c1ccc(C#Cc2ccc(OC(C)C)nc2)cc1` [Example 2.39] here?
Answer: 21.6 µM

Question: Which IC50 does the source give for `CC(=O)NC(C)Cc1ccc(C#Cc2cnc(OCCc3ccccc3)nc2)cc1` (centres unmarked) [Example 12.32] here?
Answer: 0.32 µM

Question: For `CCOc1ccc(C#Cc2ccc(CC(C)NC(=O)c3c(C)noc3N)cc2)cc1` (centres unmarked) [Example 4.52], which IC50 is on record?
Answer: 5.1 µM

Question: `CC(=O)N[C@@H](C)c1ccc(C#Cc2cnc(NC3CCC3)nc2)cc1` [Example 13.89] was tested. Which IC50 did it give?
Answer: 1 µM

Question: How did the IC50 turn out when `CC(=O)NC(C)Cc1ccc(C#Cc2ccc(OC(F)(F)F)cc2C#N)cc1` (centres unmarked) [Example 2.10] was run?
Answer: 7.5 µM

Question: `CCNC(=O)NCC(C)c1ccc(C#Cc2cnc(OC3CCC3)nc2)cc1` (centres unmarked) [Example 33.3] was tested. Which IC50 did it give?
Answer: 2.3 µM

Question: How did the IC50 turn out when `C[C@H](NC(=O)C1CC1)c1ccc(C#Cc2cnc(NC3CCC3)nc2)cc1` [Example 13.88] was run?
Answer: 3.1 µM

Question: With `CC(=O)NC(C)Cc1ccc(C#Cc2cnc(OCc3ccccc3F)nc2)cc1` (centres unmarked) [Example 12.53] as the molecule, how does the IC50 read?
Answer: 9 µM

Question: With `CC(=O)NC(C)Cc1ccc(C#Cc2ccnc(NCC(C)C)n2)cc1` (centres unmarked) [Example 11.44] as the molecule, how does the IC50 read?
Answer: 1.3 µM

Question: With `C/C=C/C(=O)NC(C)Cc1ccc(C#Cc2ccc(OCC)cc2)cc1` (centres unmarked) [Example 4.3] as the molecule, how does the IC50 read?
Answer: 0.22 µM

Question: Which IC50 does the source give for `CCOc1ccc(C#Cc2ccc(CC(C)NC(=O)CS(C)(=O)=O)cc2)cc1` (centres unmarked) [Example 4.15] here?
Answer: 0.78 µM

Question: `CC(=O)NC(C)Cc1ccc(C#Cc2cccc(C(=O)NC(C)c3ccccc3)c2)cc1` (centres unmarked) [Example 8.41] was tested. Which IC50 did it give?
Answer: 23.3 µM

Question: With `CC(=O)NC(C)Cc1ccc(C#Cc2cccc(C(=O)NC3CCC3)c2)cc1` (centres unmarked) [Example 8.34] as the molecule, how does the IC50 read?
Answer: 1.2 µM

Question: With `CC(=O)NC(C)Cc1ccc(C#Cc2cccc(C(=O)NCCN3CCOCC3)c2)cc1` (centres unmarked) [Example 8.24] as the molecule, how does the IC50 read?
Answer: 30 µM

Question: `CC(=O)NC(C)Cc1ccc(C#Cc2ccc(Br)cc2F)cc1` (centres unmarked) [Example 1.24] was tested. Which IC50 did it give?
Answer: 1.1 µM

Question: `CC(Cc1ccc(C#Cc2cnc(OC3CCC3)nc2)cc1)NC(=O)N(C)C` (centres unmarked) [Example 12.29] was tested. Which IC50 did it give?
Answer: 0.07 µM

Question: With `CC(=O)NC(C)Cc1ccc(C#Cc2ccnc(N3CCC(c4ccccc4)CC3)n2)cc1` (centres unmarked) [Example 11.40] as the molecule, how does the IC50 read?
Answer: 1.1 µM

Question: How did the IC50 turn out when `COC(=O)CN(C)c1nccc(C#Cc2ccc(CC(C)NC(C)=O)cc2)n1` (centres unmarked) [Example 11.48] was run?
Answer: 10.3 µM

Question: With `CC(=O)NC(C)Cc1ccc(C#Cc2cccc(C(=O)NCC(C)C)c2)cc1` (centres unmarked) [Example 8.30] as the molecule, how does the IC50 read?
Answer: 2.8 µM

Question: How did the IC50 turn out when `CCOc1ccc(C#Cc2ccc(CC(C)NC(=O)CC)cc2)cc1` (centres unmarked) [Example 4.7] was run?
Answer: 0.12 µM

Question: How did the IC50 turn out when `CCOc1ccc(C#Cc2ccc(CC(C)NC(=O)C=C(C)C)cc2)cc1` (centres unmarked) [Example 4.17] was run?
Answer: 0.47 µM

Question: With `C=C1CCN(c2ncc(C#Cc3ccc(CC(C)NC(C)=O)cc3)cn2)CC1` (centres unmarked) [Example 13.85] as the molecule, how does the IC50 read?
Answer: 0.08 µM

Question: How did the IC50 turn out when `CC(=O)NC(C)Cc1ccc(C#Cc2cnc(OC(C)CF)nc2)cc1` (centres unmarked) [Example 12.41] was run?
Answer: 0.52 µM

Question: For `CC(=O)NC(C)Cc1ccc(C#Cc2cnc(NCCc3ccccc3)nc2)cc1` (centres unmarked) [Example 13.87], which IC50 is on record?
Answer: 1 µM

Question: For `CC(=O)NC(C)Cc1ccc(C#Cc2cccc(C(=O)N3CCN(C(C)C)CC3)c2)cc1` (centres unmarked) [Example 1.9], which IC50 is on record?
Answer: 8.4 µM

Question: Which IC50 does the source give for `CC(=O)NC(C)Cc1ccc(C#Cc2ccc(Br)cc2)cc1` (centres unmarked) [Example 2.15] here?
Answer: 0.56 µM

Question: `CC(=O)NC(C)Cc1ccc(C#Cc2cccc(C(=O)NC3CCCC3)c2)cc1` (centres unmarked) [Example 8.26] was tested. Which IC50 did it give?
Answer: 1.5 µM

Question: How did the IC50 turn out when `COC(=O)NC(C)Cc1ccc(C#Cc2cnc(NCc3cccnc3)nc2)cc1` (centres unmarked) [Example 13.33] was run?
Answer: 1.8 µM

Question: How did the IC50 turn out when `COCCOc1ccc(C#Cc2ccc(CC(C)NC(C)=O)cc2)cn1` (centres unmarked) [Example 2.24] was run?
Answer: 0.76 µM

Question: Which IC50 does the source give for `CCOc1ccc(C#Cc2ccc(CC(C)N(C)C(C)=O)cc2)cc1` (centres unmarked) [Example 18.1, N-{2-[4-(4-Ethoxy-phenylethynyl)-phenyl]-1-methyl-ethyl}-N-methyl-acetamide] here?
Answer: 13.7 µM

Question: With `CC(Cc1ccc(C#Cc2ccc(C(C)C)cc2)cc1)NC(=O)C1CC1` (centres unmarked) [Example 2.57] as the molecule, how does the IC50 read?
Answer: 0.57 µM

Question: `CC(=O)NC(C)Cc1ccc(C#Cc2cnc(N(C)C3CCCC3)nc2)cc1` (centres unmarked) [Example 13.16] was tested. Which IC50 did it give?
Answer: 0.19 µM

Question: `CC(=O)NC(C)Cc1ccc(C#Cc2cnc(OC(C)CC(F)(F)F)nc2)cc1` (centres unmarked) [Example 12.42] was tested. Which IC50 did it give?
Answer: 0.35 µM

Question: Which IC50 does the source give for `CCC(=O)NCC(C)c1ccc(C#Cc2cnc(OC3CCC3)nc2)cc1` (centres unmarked) [Example 4.78] here?
Answer: 0.29 µM

Question: With `CC(=O)NC(C)Cc1ccc(C#Cc2ccc(OCC3(C)CC3)cc2)cc1` (centres unmarked) [Example 9.11] as the molecule, how does the IC50 read?
Answer: 0.18 µM

Question: `COC(=O)NC(C)Cc1ccc(C#Cc2cnc(N3CCC4(CC4)C3)nc2)cc1` (centres unmarked) [Example 13.29] was tested. Which IC50 did it give?
Answer: 0.61 µM

Question: How did the IC50 turn out when `CC(=O)NC(C)Cc1ccc(C#Cc2ccc(OCCN3CCCCC3)cc2)cc1` (centres unmarked) [Example 9.5] was run?
Answer: 22.1 µM

Question: Which IC50 does the source give for `CC(=O)NC(C)Cc1ccc(C#Cc2ccnc(N(C)CCC(C)(C)C)n2)cc1` (centres unmarked) [Example 11.32] here?
Answer: 0.35 µM

Question: `CC(=O)NC(C)Cc1ccc(C#Cc2ccc(OC(C)C)nc2)cc1` (centres unmarked) [Example 2.21] was tested. Which IC50 did it give?
Answer: 0.24 µM

Question: `CC(=O)NC(C)Cc1ccc(C#Cc2ccn(CC(C)C)c(=O)c2)cc1` (centres unmarked) [Example 2.82] was tested. Which IC50 did it give?
Answer: 1.6 µM

Question: Which IC50 does the source give for `COc1ccc(C#Cc2ccc(C(C)NC(C)=O)cc2)cc1` (centres unmarked) [Example 2.104] here?
Answer: 1.5 µM

Question: Which IC50 does the source give for `CC(Cc1ccc(C#Cc2cnc(OC3CCC3)nc2)cc1)NC(=O)c1cncs1` (centres unmarked) [34.1] here?
Answer: 0.17 µM

Question: For `CC(=O)N[C@@H](C)c1ccc(C#Cc2cnc(OCc3ccoc3)nc2)cc1` [Example 12.61], which IC50 is on record?
Answer: 0.79 µM

Question: `CC(=O)N[C@@H](C)c1ccc(C#Cc2cnc(OCc3ccccc3)nc2)cc1` [Example 12.60] was tested. Which IC50 did it give?
Answer: 0.54 µM

Question: Which IC50 does the source give for `COCC(C)Nc1ncc(C#Cc2ccc(CC(C)NC(C)=O)cc2)cn1` (centres unmarked) [Example 13.14] here?
Answer: 1.9 µM
